Assay results from ChEMBL document CHEMBL4483862, “Open-source discovery of chemical leads for next-generation chemoprotective antimalarials” (2018).
pIC50: −log10 of the molar value.

System: Plasmodium berghei
Experiment: Luciferase/luciferin-expressing antifolate-resistant parasites were used to infect a culture of HepG2 cells that were pre-incubated with compounds. Infected hepatocytes emit light due to the luciferase reaction. Assay results are presented as the percent inhibition of light emission compared to control. […]
Format: functional
Settings: sporozoite; for IC90: read-out: LUCIFERASE INFECTION ASSAY - IC90

Row | SMILES | IC90 | further results
1 | CC(NC(=O)COc1ccc(-c2nnco2)cc1)c1ccc(Cl)cc1Cl (configuration not stated) | > 10 µM | pIC50 (FFLUC_HILL_SLOPE 0.318, FFLUC_R_SQUARED 0.016, read-out: LUCIFERASE INFECTION ASSAY - IC50): < 5.00
2 | CC(=O)Nc1cccc(-c2ccnc3c2CC(C(=O)NCc2ccco2)O3)c1 (configuration not stated) | 6.23 µM | pIC50 (FFLUC_HILL_SLOPE 0.324, FFLUC_R_SQUARED 0.726, HEPG2TOX_HILL_SLOPE 3.12, HEPG2TOX_R_SQUARED 0.86, PBLUC_HILL_SLOPE 2.84, PBLUC_R_SQUARED 0.407, read-out: LUCIFERASE INFECTION ASSAY - IC50): 5.54
3 | CC1(C(=O)NCc2ccco2)Cc2c(-c3ccc4c(c3)OCO4)ccnc2O1 (configuration not stated) | > 8.72 µM | pIC50 (FFLUC_HILL_SLOPE 0.436, FFLUC_R_SQUARED 0.176, HEPG2TOX_HILL_SLOPE 1.94, HEPG2TOX_R_SQUARED 0.783, PBLUC_HILL_SLOPE 1.2, PBLUC_R_SQUARED 0.613, read-out: LUCIFERASE INFECTION ASSAY - IC50): 5.64
4 | NS(=O)(=O)c1ccc(Nc2nc(-c3ccc(Cl)s3)cs2)cc1 | > 10 µM | pIC50 (FFLUC_HILL_SLOPE 0.347, FFLUC_R_SQUARED 0.604, read-out: LUCIFERASE INFECTION ASSAY - IC50): < 5.00
5 | N#C/C(=C\N1CCN(Cc2ccccc2)CC1)S(=O)(=O)c1ccccn1 | > 8.96 µM | pIC50 (FFLUC_HILL_SLOPE 0.433, FFLUC_R_SQUARED 0.0165, read-out: LUCIFERASE INFECTION ASSAY - IC50): < 5.05
6 | CCOC(=O)c1c(S(=O)(=O)N2CCN(c3ncccc3C(F)(F)F)CC2)c(-c2ccccc2)n(-c2ccccc2)c1C | > 5.51 µM | pIC50 (FFLUC_HILL_SLOPE 0.343, FFLUC_R_SQUARED 0.352, PBLUC_HILL_SLOPE 1.97, PBLUC_R_SQUARED 0.72, read-out: LUCIFERASE INFECTION ASSAY - IC50): < 5.26
7 | CC(=O)Nc1ccc2c(COC(=O)C(CC(C)C)NC(=O)c3ccc(Cl)cc3)cc(=O)oc2c1 (configuration not stated) | > 10 µM | pIC50 (FFLUC_HILL_SLOPE 0.303, FFLUC_R_SQUARED 0.675, read-out: LUCIFERASE INFECTION ASSAY - IC50): < 5.00
8 | CNC(=S)N/N=C1\C(=O)Nc2ccc(C(C)C)cc21 | > 10 µM | pIC50 (FFLUC_HILL_SLOPE 0.391, FFLUC_R_SQUARED 0.18, PBLUC_HILL_SLOPE 8.53, PBLUC_R_SQUARED 0.15, read-out: LUCIFERASE INFECTION ASSAY - IC50): 5.06
9 | Cc1ccc(S(=O)(=O)/N=C2\C=C3N(CCO)CCOC3(O)c3ccccc32)c(C)c1 (configuration not stated) | 6.56 µM | pIC50 (FFLUC_HILL_SLOPE 0.405, FFLUC_R_SQUARED 0.0273, HEPG2TOX_HILL_SLOPE 10.4, HEPG2TOX_R_SQUARED 0.538, PBLUC_HILL_SLOPE 3.34, PBLUC_R_SQUARED 0.51, read-out: LUCIFERASE INFECTION ASSAY - IC50): 5.47
10 | CC1(C)CCc2cc(/C=N/NC(=O)c3ccc(Cl)cc3)ccc2O1 | > 9.63 µM | pIC50 (FFLUC_HILL_SLOPE 0.306, FFLUC_R_SQUARED 0.456, PBLUC_HILL_SLOPE 2.8, PBLUC_R_SQUARED 0.043, read-out: LUCIFERASE INFECTION ASSAY - IC50): 5.17
11 | Cc1ccc(-c2nn(-c3ccccc3)c3[nH]c(-c4ccccc4)cc(=O)c23)cc1 | > 10 µM | pIC50 (FFLUC_HILL_SLOPE 0.301, FFLUC_R_SQUARED 0.0383, PBLUC_HILL_SLOPE 15, PBLUC_R_SQUARED 0.1, read-out: LUCIFERASE INFECTION ASSAY - IC50): 5.01
12 | CN(Cc1ccc(Cl)cc1Cl)C(=O)c1ccc(NC(=O)C2CC2)cc1 | > 10 µM | pIC50 (FFLUC_HILL_SLOPE 0.429, FFLUC_R_SQUARED 0.32, PBLUC_HILL_SLOPE 3.47, PBLUC_R_SQUARED 0.753, read-out: LUCIFERASE INFECTION ASSAY - IC50): 5.16
13 | O=c1c2c3c(sc2nc(SCc2cc([N+](=O)[O-])cc4c2OCOC4)n1C1CCCC1)CCCC3 | > 10 µM | pIC50 (FFLUC_HILL_SLOPE 0.343, FFLUC_R_SQUARED 0.0189, read-out: LUCIFERASE INFECTION ASSAY - IC50): < 5.00
14 | Cc1cc(C(=O)OCC(=O)NC(=O)NC(C)(C)C)c(C)n1-c1ccccc1 | > 10 µM | pIC50 (FFLUC_HILL_SLOPE 0.365, FFLUC_R_SQUARED 0.0382, read-out: LUCIFERASE INFECTION ASSAY - IC50): < 5.00
15 | CCOC(=O)c1c(-c2ccc(OC)cc2)csc1NC(=O)CSc1nc(C)nc2sc3c(c12)CCC3 | > 10 µM | pIC50 (FFLUC_HILL_SLOPE 0.459, FFLUC_R_SQUARED 0.138, read-out: LUCIFERASE INFECTION ASSAY - IC50): < 5.00
16 | CNc1nc(-c2[nH]c(C)c(C(=O)OC)c2C)cs1 | 2.11 µM | pIC50 (FFLUC_HILL_SLOPE 0.348, FFLUC_R_SQUARED 0.146, HEPG2TOX_HILL_SLOPE 0.722, HEPG2TOX_R_SQUARED 0.883, PBLUC_HILL_SLOPE 1.52, PBLUC_R_SQUARED 0.828, read-out: LUCIFERASE INFECTION ASSAY - IC50): 6.30

Row | SMILES | IC90 | further results
17 | O=C(Nc1ccc(CN2CCCC2)cc1)c1[nH]nc2ccccc12 | 5.09 µM | pIC50 (FFLUC_HILL_SLOPE 0.453, FFLUC_R_SQUARED 0.794, PBLUC_HILL_SLOPE 1.12, PBLUC_R_SQUARED 0.946, read-out: LUCIFERASE INFECTION ASSAY - IC50): 6.14
18 | N#Cc1ccc(-c2cnc3cnc(-c4cnn(Cc5ccccc5)c4)cn23)cc1 | > 8.77 µM | pIC50 (FFLUC_HILL_SLOPE 0.364, FFLUC_R_SQUARED 0.0429, PBLUC_HILL_SLOPE 3.85, PBLUC_R_SQUARED 0.0396, read-out: LUCIFERASE INFECTION ASSAY - IC50): 5.12
19 | O=C(NC1CC1)c1ccc(-c2cn3c(-c4ccc(CO)cc4)cnc3cn2)cc1 | > 8.58 µM | pIC50 (FFLUC_HILL_SLOPE 0.381, FFLUC_R_SQUARED 0.0382, PBLUC_HILL_SLOPE 16.7, PBLUC_R_SQUARED 0.0287, read-out: LUCIFERASE INFECTION ASSAY - IC50): 5.08
20 | COc1ccc(-c2cnc3cnc(-c4cccc(N)c4)cn23)cc1 | 1.68 µM | pIC50 (FFLUC_HILL_SLOPE 0.419, FFLUC_R_SQUARED 0.0515, PBLUC_HILL_SLOPE 8.9, PBLUC_R_SQUARED 0.87, read-out: LUCIFERASE INFECTION ASSAY - IC50): 5.88
21 | CCNC(=S)NNC(=O)/C=C/c1ccccc1OC | > 10 µM | pIC50 (FFLUC_HILL_SLOPE 0.401, FFLUC_R_SQUARED 0.162, HEPG2TOX_HILL_SLOPE 12.3, HEPG2TOX_R_SQUARED 0.97, read-out: LUCIFERASE INFECTION ASSAY - IC50): < 5.00
22 | Cc1ccc(C(CN2CCOCC2)Nc2nc(C(F)(F)F)nc3ccccc23)cc1 (configuration not stated) | 3.63 µM | pIC50 (FFLUC_HILL_SLOPE 0.43, FFLUC_R_SQUARED 0.0433, PBLUC_HILL_SLOPE 12.3, PBLUC_R_SQUARED 0.751, read-out: LUCIFERASE INFECTION ASSAY - IC50): 5.52
23 | Cc1ccc(Nc2cc(C)nc3c(-c4ccccc4)cnn23)cc1 | > 10.5 µM | pIC50 (FFLUC_HILL_SLOPE 0.324, FFLUC_R_SQUARED 0.749, HEPG2TOX_HILL_SLOPE 3.12, HEPG2TOX_R_SQUARED 0.973, read-out: LUCIFERASE INFECTION ASSAY - IC50): < 4.98
24 | Cc1ccc(C)c(Oc2ccc(NC(=O)Nc3ccc(SC(F)(F)F)cc3)cn2)c1 | 2.68 µM | pIC50 (FFLUC_HILL_SLOPE 0.447, FFLUC_R_SQUARED 0.395, HEPG2TOX_HILL_SLOPE 4.72, HEPG2TOX_R_SQUARED 0.964, PBLUC_HILL_SLOPE 32.1, PBLUC_R_SQUARED 0.384, read-out: LUCIFERASE INFECTION ASSAY - IC50): 5.60
25 | CC(C)(C)c1ccc(C(=O)NNC(=S)Nc2ccccc2)cc1 | > 10.1 µM | pIC50 (FFLUC_HILL_SLOPE 0.417, FFLUC_R_SQUARED 0.371, PBLUC_HILL_SLOPE 1.47, PBLUC_R_SQUARED 0.465, read-out: LUCIFERASE INFECTION ASSAY - IC50): 5.52
26 | COC(=O)c1cc(C#N)c(Sc2ncc([N+](=O)[O-])s2)nc1C(OC)OC | > 8.32 µM | pIC50 (FFLUC_HILL_SLOPE 0.469, FFLUC_R_SQUARED 0.297, HEPG2TOX_HILL_SLOPE 12.3, HEPG2TOX_R_SQUARED 0.829, PBLUC_HILL_SLOPE 2.84, PBLUC_R_SQUARED 0.141, read-out: LUCIFERASE INFECTION ASSAY - IC50): < 5.08
27 | N#CC(Cc1ccccc1)Sc1nnc(-c2ccccc2)n1-c1ccccc1 (configuration not stated) | > 10 µM | pIC50 (FFLUC_HILL_SLOPE 0.339, FFLUC_R_SQUARED 0.0197, read-out: LUCIFERASE INFECTION ASSAY - IC50): < 5.00
28 | CN(C)c1ccccc1-c1cn2c(-c3ccc4c(ccn4C)c3)cnc2cn1 | 1.24 µM | pIC50 (FFLUC_HILL_SLOPE 0.352, FFLUC_R_SQUARED 0.0452, HEPG2TOX_HILL_SLOPE 0.416, HEPG2TOX_R_SQUARED 0.805, PBLUC_HILL_SLOPE 0.654, PBLUC_R_SQUARED 0.684, read-out: LUCIFERASE INFECTION ASSAY - IC50): 7.37
29 | Cc1c(C)n(CCCO)c2ncn3nc(-c4ccc(N(C)C)cc4)nc3c12 | 3.79 µM | pIC50 (FFLUC_HILL_SLOPE 0.464, FFLUC_R_SQUARED 0.882, PBLUC_HILL_SLOPE 0.457, PBLUC_R_SQUARED 0.781, read-out: LUCIFERASE INFECTION ASSAY - IC50): 7.51
30 | Cc1cc(C)c(C#N)c(SCc2nc(-c3ccsc3)no2)n1 | 0.328 µM | pIC50 (FFLUC_HILL_SLOPE 0.467, FFLUC_R_SQUARED 0.935, PBLUC_HILL_SLOPE 1.22, PBLUC_R_SQUARED 0.907, read-out: LUCIFERASE INFECTION ASSAY - IC50): 7.27
31 | Cc1cc(NC(c2cccc(Br)c2)c2ccc3cccnc3c2O)no1 (configuration not stated) | 5.63 µM | pIC50 (FFLUC_HILL_SLOPE 0.447, FFLUC_R_SQUARED 0.211, HEPG2TOX_HILL_SLOPE 1.34, HEPG2TOX_R_SQUARED 0.983, PBLUC_HILL_SLOPE 2.79, PBLUC_R_SQUARED 0.445, read-out: LUCIFERASE INFECTION ASSAY - IC50): 5.59
